Laboratory results as given in PubChem BioAssay (NCI).
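Tested at 5 concentrations; 48 h exposure; 96-well plates; endpoints linearly interpolated, else capped at highest concentration. The concentration for full growth arrest is given as TGI.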

Columns and labels:
Test in all cases: NCI anticancer screen, dose series, 48 h
[1] = system: NCI-H522 lung
[2] = system: HT29 colon
[3] = system: U251 CNS
[4] = system: A498 renal
[5] = system: LXFL 529 NSCLC
[6] = system: SK-MEL-5 melanoma
[7] = system: SNB-78 CNS
[8] = system: CAKI-1 renal
[9] = system: HOP-18 NSCLC
[10] = system: MALME-3M melanoma
[11] = system: MOLT-4 leukemia
[12] = system: SF-268 CNS
[13] = system: OVCAR-5 ovarian
[14] = system: RXF 393 renal
[15] = system: HL-60(TB) leukemia
[16] = system: DMS 273 small cell lung
[17] = system: XF 498 CNS
[18] = system: HOP-92 NSCLC
[19] = system: UO-31 renal
[20] = system: M14 melanoma
[21] = system: OVCAR-8 ovarian
[22] = system: EKVX NSCLC
[23] = system: OVCAR-3 ovarian
[24] = system: SK-MEL-28 melanoma
[25] = system: K-562 leukemia
[26] = system: IGROV1 ovarian
[27] = system: KM20L2 colon
[28] = system: HCT-15 colon
[29] = system: SK-MEL-2 melanoma
[30] = system: HCT-116 colon
[31] = system: UACC-257 melanoma
[32] = system: RXF-631 renal
[33] = system: SK-OV-3 ovarian
[34] = system: CCRF-CEM leukemia
[35] = system: SNB-75 CNS
[36] = system: M19-MEL melanoma
[37] = system: OVCAR-4 ovarian
[38] = system: 786-0 renal
[39] = system: SF-295 CNS
[40] = system: SR leukemia
[41] = system: RPMI-8226 leukemia
[42] = system: SNB-19 CNS
[43] = system: UACC-62 melanoma
[44] = system: SN12C renal
[45] = system: KM12 colon
[46] = system: NCI-H460 lung
[47] = system: ACHN renal
[48] = system: COLO 205 colon
[49] = system: NCI-H226 lung
[50] = system: TK-10 renal
[51] = system: DMS 114 small cell lung
[52] = system: NCI-H23 lung
[53] = system: A549 NSCLC
[54] = system: LOX IMVI melanoma
[55] = system: HCC-2998 colon
[56] = system: DLD-1 colon
[57] = system: HOP-62 NSCLC
[58] = system: SW-620 colon
[59] = system: SF-539 CNS

Measured: TGI

[O-][n+]1c2cc3c(cc2[n+]([O-])c2c(O)cccc21)CN(CCN1CCOCC1)C3
19 µM: [1]
28.7 µM: [3]
33.5 µM: [17]
60.6 µM: [12]
53 µM: [29]
40.9 µM: [19]
50.2 µM: [2]
68 µM: [22]
87.2 µM: [31]
26.9 µM: [11]
74.7 µM: [43]
39.5 µM: [26]
7.83 µM: [40]
25.4 µM: [51]
31.8 µM: [45]
32.3 µM: [18]
71.7 µM: [41]
66.9 µM: [47]
40 µM: [39]
71 µM: [52]
30.5 µM: [48]
33.2 µM: [30]
54.2 µM: [25]
32.5 µM: [21]
42.4 µM: [14]
62.1 µM: [5]
49 µM: [36]
50.8 µM: [23]
28.1 µM: [46]
58.9 µM: [33]
47 µM: [34]
36.8 µM: [15]
not listed: [54] | [55] | [56] | [57] | [58] | [59]
> 100 µM: all other assays above

COc1cc(Nc2cnc3ccc(N)cc3n2)cc(OC)c1OC
98.5 µM: [14]
> 86.6 µM: [23]
> 56.6 µM: [25] | [34]
> 33.6 µM: [56]
71.1 µM: [57]
> 52.1 µM: [15]
42.2 µM: [41]
> 82.8 µM: [54]
not listed: [40] | [59]
> 100 µM: all other assays above

NC(N)=NS(=O)(=O)c1ccc(NC(=O)c2cccc3c(Nc4ccc(S(=O)(=O)N=C(N)N)cc4)c4ccccc4nc23)cc1
81.5 µM: [35]
not listed: [8] | [40] | [49] | [55]
> 100 µM: all other assays above
